# Experimental data published in patent US9902722B2, “Biaryl kinase inhibitors” (BRISTOL-MYERS SQUIBB COMPANY, priority 2014, dated 2018).
# Target: GST-Xa-hAAK1 (Homo sapiens (Human), UniProt Q2M2I8)
# Experiment: AAK1 Kinase Assay;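 note: each compound tested across an eleven-point concentration series, with IC50 obtained through non-linear regression fitting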
# Format: biochemical
# Conditions: bacterially expressed GST-Xa-hAAK1 3.5 nM; ATP 22 μM; peptide substrate 1.5 μM; 3 hours at room temperature; Caliper LabChip 3000
# Sequence of GST-Xa-hAAK1 (Q2M2I8 whole entry): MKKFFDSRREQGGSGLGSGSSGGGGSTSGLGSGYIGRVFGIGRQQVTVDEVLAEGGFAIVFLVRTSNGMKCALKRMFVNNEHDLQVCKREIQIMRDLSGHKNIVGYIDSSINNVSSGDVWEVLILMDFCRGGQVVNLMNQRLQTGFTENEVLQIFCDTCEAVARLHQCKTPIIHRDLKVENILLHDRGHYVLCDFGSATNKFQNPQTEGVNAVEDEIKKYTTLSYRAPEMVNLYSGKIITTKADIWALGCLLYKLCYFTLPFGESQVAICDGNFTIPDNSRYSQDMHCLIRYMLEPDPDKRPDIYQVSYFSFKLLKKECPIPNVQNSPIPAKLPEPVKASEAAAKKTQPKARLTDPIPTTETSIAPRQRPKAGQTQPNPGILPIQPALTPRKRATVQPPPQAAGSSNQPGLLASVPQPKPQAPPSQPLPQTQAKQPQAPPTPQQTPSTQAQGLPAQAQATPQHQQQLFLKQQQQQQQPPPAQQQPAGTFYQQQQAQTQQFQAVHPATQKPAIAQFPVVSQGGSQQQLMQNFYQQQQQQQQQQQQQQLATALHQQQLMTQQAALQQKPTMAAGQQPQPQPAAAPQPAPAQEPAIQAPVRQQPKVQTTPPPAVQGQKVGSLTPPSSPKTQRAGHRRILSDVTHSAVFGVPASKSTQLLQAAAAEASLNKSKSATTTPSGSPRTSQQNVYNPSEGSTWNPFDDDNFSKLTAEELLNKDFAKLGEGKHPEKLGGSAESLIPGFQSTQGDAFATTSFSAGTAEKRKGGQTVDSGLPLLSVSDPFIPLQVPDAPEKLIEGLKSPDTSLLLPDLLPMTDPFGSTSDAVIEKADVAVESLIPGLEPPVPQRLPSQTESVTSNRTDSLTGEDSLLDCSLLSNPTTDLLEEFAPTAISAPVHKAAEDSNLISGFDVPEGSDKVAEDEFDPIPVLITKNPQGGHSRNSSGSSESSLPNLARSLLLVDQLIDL
row,Structure (SMILES),IC50 [nM]
1,"CC(C)C[C@](C)(N)COc1ccc(-c2ccncc2)cc1C(F)(F)F [Example 43, (S)-2,4-dimethyl-1-(4-(pyridin-4-yl)-2-(trifluoromethyl)phenoxy)pentan-2-amine]",0.64
2,"Cc1cc(-c2ccc(OC[C@@](C)(N)CC(C)C)c(C(F)(F)F)c2)ccn1 [Example 45, (S)-2,4-dimethyl-1-(4-(2-methylpyridin-4-yl)-2-(trifluoromethyl)phenoxy)pentan-2-amine]",1.2
3,"COc1cnccc1-c1ccc(OC[C@@](C)(N)CC(C)C)c(C(F)(F)F)c1 [Example 46, (S)-1-(4-(3-methoxypyridin-4-yl)-2-(trifluoromethyl)phenoxy)-2,4-dimethylpentan-2-amine]",0.86
4,"CC(C)C[C@](C)(N)COc1ccc(-c2ccncc2F)cc1C(F)(F)F [Example 47, (S)-1-(4-(3-fluoropyridin-4-yl)-2-(trifluoromethyl)phenoxy)-2,4-dimethylpentan-2-amine]",0.77
5,"Cc1cc(-c2ccc(OC[C@@](C)(N)CC(C)C)c(C(F)F)c2)ccn1 [Example 50, (S)-1-(2-(difluoromethyl)-4-(2-methylpyridin-4-yl)phenoxy)-2,4-dimethylpentan-2-amine]",0.38
6,"COC(=O)Nc1cc(-c2ccc(OCC(C)(N)CC(C)C)cn2)ccn1 (centres unmarked) [Example 63, methyl (5-((2-amino-2,4-dimethylpentyl)oxy)-[2,4′-bipyridin]-2′-yl)carbamate]",24
7,"COC(=O)Nc1cc(-c2ccc(OC[C@@](C)(N)CC(C)C)c(C)n2)ccn1 [Example 64, (S)-methyl (5-((2-amino-2,4-dimethylpentyl)oxy)-6-methyl-[2,4′-bipyridin]-2′-yl)carbamate]",1.1
8,"COC(=O)Nc1cc(-c2cc(C)c(OC[C@@](C)(N)CC(C)C)cn2)ccn1 [Example 68, (S)-methyl (5-((2-amino-2,4-dimethylpentyl)oxy)-4-methyl-[2,4′-bipyridin]-2′-yl)carbamate]",2.6
9,"CC(C)C[C@](C)(N)COc1ccc(-c2ccnc3cc(F)cc(F)c23)cc1C(F)(F)F [Example 72, (S)-1-(4-(5,7-difluoroquinolin-4-yl)-2-(trifluoromethyl)phenoxy)-2,4-dimethylpentan-2-amine]",0.53
10,"CC(C)C[C@](C)(N)COc1ncc(-c2ccnc3cc(F)cc(F)c23)cc1C#N [Example 77, (S)-2-((2-amino-2,4-dimethylpentyl)oxy)-5-(5,7-difluoroquinolin-4-yl)nicotinonitrile]",0.92
11,"CC(C)C[C@](C)(N)COc1ncc(-c2ccnc3ccncc23)cc1C#N [Example 80, (S)-2-((2-amino-2,4-dimethylpentyl)oxy)-5-(1,6-naphthyridin-4-yl)nicotinonitrile]",19
12,"Cc1cc(-c2ccc(OC[C@@](C)(N)CC(C)C)c(C)c2)ccn1 [Example 90, (S)-2,4-dimethyl-1-(2-methyl-4-(2-methylpyridin-4-yl)phenoxy)pentan-2-amine]",2.6
13,"Cc1cc(-c2ccc(OC[C@@](C)(N)CC(C)C)c(F)c2)ccn1 [Example 91, (S)-1-(2-fluoro-4-(2-methylpyridin-4-yl)phenoxy)-2,4-dimethylpentan-2-amine]",12.1
14,"Cc1cc(-c2ccnc(F)c2)ccc1OC[C@@](C)(N)CC(C)C [Example 92, (S)-1-(4-(2-fluoropyridin-4-yl)-2-methylphenoxy)-2,4-dimethylpentan-2-amine]",5.4
15,"CC(C)C[C@](C)(N)COc1ccc(-c2ccnc(F)c2)cc1F [Example 93, (S)-1-(2-fluoro-4-(2-fluoropyridin-4-yl)phenoxy)-2,4-dimethylpentan-2-amine]",33
16,"CC(C)C[C@](C)(N)COc1ccc(-c2ccnc(F)c2)cc1C#N [Example 94, (S)-2-((2-amino-2,4-dimethylpentyl)oxy)-5-(2-fluoropyridin-4-yl)benzonitrile]",4.7
17,"Cc1cc(-c2ccnc(F)c2)cnc1OC[C@@](C)(N)CC(C)C [Example 95, (S)-1-((2′-fluoro-5-methyl-[3,4′-bipyridin]-6-yl)oxy)-2,4-dimethylpentan-2-amine]",39
18,"Cc1cc(-c2ccnc3cc(C#N)ccc23)cnc1OC[C@@](C)(N)CC(C)C [Example 96, (S)-4-(6-((2-amino-2,4-dimethylpentyl)oxy)-5-methylpyridin-3-yl)quinoline-7-carbonitrile]",3
19,"Cc1cc(-c2cnc(OC[C@@](C)(N)CC(C)C)c(F)c2)ccn1 [Example 97, (S)-1-((5-fluoro-2′-methyl-[3,4′-bipyridin]-6-yl)oxy)-2,4-dimethylpentan-2-amine]",142
20,"COC(=O)Nc1nccc(-c2ccc(OC[C@@](C)(N)CC(C)C)c(C#N)c2)c1F [Example 100, (S)-methyl (4-(4-((2-amino-2,4-dimethylpentyl)oxy)-3-cyanophenyl)-3-fluoropyridin-2-yl)carbamate]",6.8

# More lines, now with the values ahead:
row,IC50 [nM],Structure (SMILES)
1,42,"Cc1cc(-c2ccc(OC[C@@](C)(N)CC(C)C)c(C)n2)ccn1 [Example 65, (S)-1-((2′,6-dimethyl-[2,4′-bipyridin]-5-yl)oxy)-2,4-dimethylpentan-2-amine]"
2,0.65,"COC(=O)Nc1cc(-c2ccc(OC[C@@](C)(N)CC(C)C)c(Cl)n2)ccn1 [Example 66, (S)-methyl (5-((2-amino-2,4-dimethylpentyl)oxy)-6-chloro-[2,4′-bipyridin]-2′-yl)carbamate]"
3,0.76,"CC(C)C[C@](C)(N)COc1ccc(-c2ccnc3ccccc23)cc1C(F)(F)F [Example 69, (S)-2,4-dimethyl-1-(4-(quinolin-4-yl)-2-(trifluoromethyl)phenoxy)pentan-2-amine]"
4,2.3,"CC(C)C[C@](C)(N)COc1ccc(-c2ccnc3cc(C(F)(F)F)ccc23)cc1C(F)(F)F [Example 70, (S)-2,4-dimethyl-1-(2-(trifluoromethyl)-4-(7-(trifluoromethyl)quinolin-4-yl)phenoxy)pentan-2-amine]"
5,0.51,"CC(C)C[C@](C)(N)COc1ccc(-c2ccnc3ccc(F)cc23)cc1C(F)(F)F [Example 73, (S)-1-(4-(6-fluoroquinolin-4-yl)-2-(trifluoromethyl)phenoxy)-2,4-dimethylpentan-2-amine]"
6,0.07,"CC(C)C[C@](C)(N)COc1ccc(-c2ccnc3ccccc23)cc1C1CC1 [Example 74, (S)-1-(2-cyclopropyl-4-(quinolin-4-yl)phenoxy)-2,4-dimethylpentan-2-amine]"
7,34,"CC(C)CC(C)(N)COc1c(F)cc(-c2ccnc3ccccc23)cc1Cl (centres unmarked) [Example 75, 1-(2-chloro-6-fluoro-4-(quinolin-4-yl)phenoxy)-2,4-dimethylpentan-2-amine]"
8,1.7,"Cc1cc(-c2ccnc3cc(F)ccc23)cnc1OC[C@@](C)(N)CC(C)C [Example 76, (S)-1-((5-(7-fluoroquinolin-4-yl)-3-methylpyridin-2-yl)oxy)-2,4-dimethylpentan-2-amine]"
9,16,"COc1cc(-c2ccnc3ccccc23)cnc1OC[C@@](C)(N)CC(C)C [Example 79, (S)-1-((3-methoxy-5-(quinolin-4-yl)pyridin-2-yl)oxy)-2,4-dimethylpentan-2-amine]"
10,7.8,"Cc1nc(-c2ccnc3ccccc23)ccc1OC[C@@](C)(N)CC(C)C [Example 81, (S)-2,4-dimethyl-1-((2-methyl-6-(quinolin-4-yl)pyridin-3-yl)oxy)pentan-2-amine]"
11,0.85,"Cc1cc(-c2ccnc3ccccc23)ncc1OC[C@@](C)(N)CC(C)C [Example 82, (S)-2,4-dimethyl-1-((4-methyl-6-(quinolin-4-yl)pyridin-3-yl)oxy)pentan-2-amine]"
12,1.8,"CC(C)C[C@](C)(N)COc1ccc(-c2ccnc3ccccc23)nc1Cl [Example 83, (S)-1-((2-chloro-6-(quinolin-4-yl)pyridin-3-yl)oxy)-2,4-dimethylpentan-2-amine]"
13,2.2,"CC(C)C[C@](C)(N)COc1ccc(-c2ccnc3[nH]ccc23)cc1C(F)(F)F [Example 84, (S)-1-(4-(1H-pyrrolo[2,3-b]pyridin-4-yl)-2-(trifluoromethyl)phenoxy)-2,4-dimethylpentan-2-amine]"
14,0.32,"CC(C)C[C@](C)(N)COc1ccc(-c2ccnc3ccncc23)cc1C(F)(F)F [Example 85, (S)-1-(4-(1,6-naphthyridin-4-yl)-2-(trifluoromethyl)phenoxy)-2,4-dimethylpentan-2-amine]"
15,1.2,"CC(C)C[C@](C)(N)COc1ccc(-c2ccnc3ccncc23)cc1C#N [Example 86, (S)-2-((2-amino-2,4-dimethylpentyl)oxy)-5-(1,6-naphthyridin-4-yl)benzonitrile]"
16,0.87,"CC(C)C[C@](C)(N)COc1ccc(-c2ccnc3cccnc23)cc1C#N [Example 87, (S)-2-((2-amino-2,4-dimethylpentyl)oxy)-5-(1,5-naphthyridin-4-yl)benzonitrile]"
17,0.46,"CC(C)C[C@](C)(N)COc1ccc(-c2ccnc3cc(Cl)ccc23)cc1C(F)(F)F [Example 88, (S)-1-(4-(7-chloroquinolin-4-yl)-2-(trifluoromethyl)phenoxy)-2,4-dimethylpentan-2-amine]"
18,0.66,"CC(C)C[C@](C)(N)COc1ccc(-c2ccnc3cc(C#N)ccc23)cc1C(F)(F)F [Example 89, (S)-4-(4-((2-amino-2,4-dimethylpentyl)oxy)-3-(trifluoromethyl)phenyl)quinoline-7-carbonitrile]"
19,10,"CC(C)C[C@](C)(N)COc1ncc(-c2ccnc3ccccc23)cc1F [Example 98, (S)-1-((3-fluoro-5-(quinolin-4-yl)pyridin-2-yl)oxy)-2,4-dimethylpentan-2-amine]"
20,31,"CC(C)C[C@](C)(N)COc1ncc(-c2ccnc3cc(C#N)ccc23)cc1F [Example 99, (S)-4-(6-((2-amino-2,4-dimethylpentyl)oxy)-5-fluoropyridin-3-yl)quinoline-7-carbonitrile]"
21,1.3,"Cc1ccc2c(-c3ccc(OC[C@@](C)(N)CC(C)C)c(C#N)c3)ccnc2c1 [Example 102, (S)-2-((2-amino-2,4-dimethylpentyl)oxy)-5-(7-methylquinolin-4-yl)benzonitrile]"
